Assay: physchem
Settings: octanol/buffer

SMILES | logP
O=C(OCc1ccc(N2C(=O)CNC[C@@H]2C(=O)N(Cc2ccccc2Cl)C2CC2)cc1)c1ccccc1 | 4.73
O=C([C@H]1CNCC(=O)N1c1ccc(CCCOc2cccc(Cl)c2)cc1)N(Cc1cc(CNCCF)ccc1Cl)C1CC1 | 5.84
CN(Cc1ccccc1)C(=O)[C@H]1CNCC(=O)N1c1ccc(CCCOc2cccc(Cl)c2)cc1 | 4.66
COc1ccccc1COCCCOc1ccc(N2C(=O)CNC[C@@H]2C(=O)N(Cc2ccnc(C)c2OC)C2CC2)cc1 | 3.45
O=C([C@H]1CNCC(=O)N1c1ccc(CCCOc2c(F)ccc(F)c2F)cc1)N(Cc1ccccc1Cl)C1CC1 | 5.73
CN(Cc1ccccc1)C(=O)[C@H]1CNCC(=O)N1c1ccc(CCCOc2c(F)ccc(F)c2F)cc1 | 4.49
CN(CCCc1ccccc1)C(=O)[C@H]1CNCC(=O)N1c1ccc(CCCOc2cccc(Cl)c2)cc1 | 5.19
COCCCc1ccc(Cl)c(CN(C(=O)[C@H]2CNCC(=O)N2c2cnc(OCCCOCc3ccccc3OC)nc2)C2CC2)c1 | 3.7
Cc1cc(Cl)c(OCCOc2ccc(N3C(=O)CNC[C@@H]3C(=O)N(C)CCc3ccccc3)cn2)c(Cl)c1 | 3.85
COc1ccccc1COCCCOc1ncc(N2C(=O)CNC[C@@H]2C(=O)N(Cc2cc(CC(=O)NC3CC3)ccc2Cl)C2CC2)cn1 | 3.13
COc1cccc(CN(C(=O)[C@H]2CNCC(=O)N2c2ccc(CCCOc3c(F)ccc(F)c3F)cc2)C2CC2)c1C | 5.39
COCCCc1cc(CN(C(=O)[C@H]2CNCC(=O)N2c2ccc(COC(=O)c3ccccc3)cc2)C2CC2)c(Cl)cn1 | 4.11
O=C(OCc1ccc(N2C(=O)CNC[C@@H]2C(=O)N(Cc2ccc(Cl)cc2)C2CC2)cc1)c1ccccc1 | 4.73
O=C([C@H]1CNCC(=O)N1c1ccc(CCCOc2cccc(Cl)c2)cc1)N(Cc1cc(CCNCC(F)F)ccc1Cl)C1CC1 | 6.22
O=C([C@H]1CNCC(=O)N1c1ccc(OCCCOCc2ccccc2)cc1)N(Cc1cc(CNC2CC2)ccc1Cl)C1CC1 | 5.58
CNCc1ccc(Cl)c(CN(C(=O)[C@H]2CNCC(=O)N2c2ccc(COC(=O)c3ccccc3)cc2)C2CC2)c1 | 4.55
COc1ccccc1COCCCOc1ccc(N2C(=O)CNC[C@@H]2C(=O)N(Cc2cccc(Cl)c2Cl)C2CC2)cc1 | 5.65
O=C(CC(F)(F)F)NCCc1ccc(Cl)c(CN(C(=O)[C@H]2CNCC(=O)N2c2ccc(OCCCOCc3ccccc3)cc2)C2CC2)c1 | 5.38
CNCc1ccc(Cl)c(CN(C(=O)[C@H]2CNCC(=O)N2c2ccc(OCCCOCc3ccccc3)cc2)C2CC2)c1 | 4.92
CCNCc1ccc(Cl)c(CN(C(=O)[C@H]2CNCC(=O)N2c2ccc(OCCCOCc3ccccc3)cc2)C2CC2)c1 | 5.26
COc1ccccc1COCCCOc1ncc(N2C(=O)CNC[C@@H]2C(=O)N(Cc2ccnc(C)c2OC)C2CC2)cn1 | 1.44
O=C(OCc1ccc(N2C(=O)CNC[C@@H]2C(=O)NCc2ccccc2Cl)cc1)c1ccccc1 | 3.88
O=C([C@H]1CNCC(=O)N1c1ccc(CCCOc2c(F)ccc(F)c2F)cc1)N(Cc1cc(CNCCF)ccc1Cl)C1CC1 | 5.66

SMILES | logP
O=C(OCc1ccc(N2C(=O)CNC[C@@H]2C(=O)N(Cc2cc(CCNC3CC3)ccc2Cl)C2CC2)cc1)c1ccccc1 | 5.29
CN(Cc1ccccc1)C(=O)[C@H]1CNCC(=O)N1c1ccc(OCCCOCc2ccccc2)cc1 | 3.86
Cc1cccc(CN(C(=O)[C@H]2CNCC(=O)N2c2ccc(OCCCOCc3ccccc3)cc2)C2CC2)c1C | 5.11
COc1c(CN(C(=O)[C@H]2CNCC(=O)N2c2ccc(CCCOc3c(F)ccc(F)c3F)cc2)C2CC2)ccnc1C | 4.12
COCCc1ccc(Cl)c(CN(C(=O)[C@@H]2CNCC(=O)N2c2cnc(OCCCOCc3ccccc3OC)nc2)C2CC2)c1 | 3.26
O=C(OCc1ccc(N2C(=O)CNC[C@@H]2C(=O)N(Cc2cccc(Cl)c2Cl)C2CC2)cc1)c1ccccc1 | 5.32
CNC(=O)OCc1ccc(Cl)c(CN(C(=O)[C@H]2CNCC(=O)N2c2cnc(OCCCOCc3ccccc3OC)nc2)C2CC2)c1 | 2.8
CNC(=O)OCc1ccc(Cl)c(CN(C(=O)[C@H]2CNCC(=O)N2c2ccc(COC(=O)c3ccccc3)cc2)C2CC2)c1 | 4.48
O=C(Cc1ccc(Cl)c(CN(C(=O)[C@H]2CNCC(=O)N2c2ccc(OCCCOCc3ccccc3)cc2)C2CC2)c1)NC1CC1 | 5.18
CNCc1ccc(Cl)c(CN(C(=O)[C@@H]2CNCC(=O)N2c2cnc(OCCCOCc3ccccc3OC)nc2)C2CC2)c1 | 2.87
CC(C)(C)OCC(=O)NCCc1ccc(Cl)c(CN(C(=O)[C@H]2CNCC(=O)N2c2ccc(COC(=O)c3ccccc3)cc2)C2CC2)c1 | 5.28
COc1ccccc1COCCCOc1ncc(N2C(=O)CNC[C@@H]2C(=O)N(Cc2cc(CNC(=O)CC(F)(F)F)ccc2Cl)C2CC2)cn1 | 3.23
O=C(CC(F)(F)F)NCc1ccc(Cl)c(CN(C(=O)[C@H]2CNCC(=O)N2c2ccc(CCCOc3c(F)ccc(F)c3F)cc2)C2CC2)c1 | 5.91
Cc1cc(Cl)c(OCCOc2ccc(N3C(=O)CNC[C@@H]3C(=O)NCc3ccccc3)cc2)c(Cl)c1 | 4.39
O=C(OCc1ccc(N2C(=O)CNC[C@@H]2C(=O)NCc2ccccc2)cc1)c1ccccc1 | 3.29
CC(=O)NCCc1ccc(Cl)c(CN(C(=O)[C@H]2CNCC(=O)N2c2ccc(COC(=O)c3ccccc3)cc2)C2CC2)c1 | 4.28
COc1ccccc1COCCCOc1ccc(N2C(=O)CNC[C@@H]2C(=O)N(Cc2ccc(Cl)cc2)C2CC2)cc1 | 5.06
CCNCCc1ccc(Cl)c(CN(C(=O)[C@H]2CNCC(=O)N2c2ccc(OCCCOCc3ccccc3)cc2)C2CC2)c1 | 5.35
COc1ccccc1COCCCOc1ncc(N2C(=O)CNC[C@@H]2C(=O)NCc2ccccc2)cn1 | 1.61
COc1ccccc1COCCCOc1ccc(N2C(=O)CNC[C@@H]2C(=O)N(Cc2cc(CNCC(F)F)ccc2Cl)C2CC2)cc1 | 5.29
COc1ccccc1COCCCOc1ncc(N2C(=O)CNC[C@@H]2C(=O)N(Cc2cc(CNC(C)=O)ccc2Cl)C2CC2)cn1 | 2.51
CNC(=O)CCc1ccc(Cl)c(CN(C(=O)[C@H]2CNCC(=O)N2c2cnc(OCCCOCc3ccccc3OC)nc2)C2CC2)c1 | 2.56

The next lines start with the values.

logP | SMILES
5.48 | COC(=O)NCc1ccc(Cl)c(CN(C(=O)[C@H]2CNCC(=O)N2c2ccc(CCCOc3c(F)ccc(F)c3F)cc2)C2CC2)c1
5.43 | COCCCc1cc(CN(C(=O)[C@H]2CNCC(=O)N2c2ccc(OCCOc3c(Cl)cc(C)cc3Cl)cc2)C2CC2)c(Cl)c[n+]1[O-]
5.65 | CNC(=O)OCc1ccc(Cl)c(CN(C(=O)[C@H]2CNCC(=O)N2c2ccc(CCCOc3cccc(Cl)c3)cc2)C2CC2)c1
5.48 | CNC(=O)OCc1ccc(Cl)c(CN(C(=O)[C@H]2CNCC(=O)N2c2ccc(CCCOc3c(F)ccc(F)c3F)cc2)C2CC2)c1
5.65 | COC(=O)NCc1ccc(Cl)c(CN(C(=O)[C@H]2CNCC(=O)N2c2ccc(CCCOc3cccc(Cl)c3)cc2)C2CC2)c1
4.94 | Cc1cc(Cl)c(OCCOc2ccc(N3C(=O)CNC[C@@H]3C(=O)N(Cc3cc(CNCCF)ccc3Cl)C3CC3)cn2)c(Cl)c1
5.87 | Cc1cc(Cl)c(OCCOc2ccc(N3C(=O)CNC[C@@H]3C(=O)N(Cc3cccc(Cl)c3)C3CC3)cc2)c(Cl)c1
5.01 | Cc1cc(Cl)c(OCCOc2ccc(N3C(=O)CNC[C@@H]3C(=O)N(Cc3cccc(C)c3C)C3CC3)cn2)c(Cl)c1
5.16 | CCNCc1ccc(Cl)c(CN(C(=O)[C@H]2CNCC(=O)N2c2ccc(OCCOc3c(Cl)cc(C)cc3Cl)nc2)C2CC2)c1
5.22 | COCCc1ccc(Cl)c(CN(C(=O)[C@H]2CNCC(=O)N2c2ccc(OCCOc3c(Cl)cc(C)cc3Cl)nc2)C2CC2)c1
5.67 | CNC(=O)OCCc1ccc(Cl)c(CN(C(=O)[C@H]2CNCC(=O)N2c2ccc(OCCOc3c(Cl)cc(C)cc3Cl)cc2)C2CC2)c1
6.38 | Cc1cc(Cl)c(OCCOc2ccc(N3C(=O)CNC[C@@H]3C(=O)N(Cc3cc(CCNC(=O)COC(C)(C)C)ccc3Cl)C3CC3)cc2)c(Cl)c1
4.47 | CC(=O)NCc1ccc(Cl)c(CN(C(=O)[C@H]2CNCC(=O)N2c2ccc(OCCOc3c(Cl)cc(C)cc3Cl)nc2)C2CC2)c1
5.83 | Cc1cc(Cl)c(OCCOc2ccc(N3C(=O)CNC[C@@H]3C(=O)N(Cc3cccc(C)c3C)C3CC3)cc2)c(Cl)c1
2.88 | CNC(=O)OCCc1ccc(Cl)c(CN(C(=O)[C@H]2CNCC(=O)N2c2cnc(OCCCOCc3ccccc3OC)nc2)C2CC2)c1
4.66 | CC(=O)NCCc1ccc(Cl)c(CN(C(=O)[C@H]2CNCC(=O)N2c2ccc(OCCCOCc3ccccc3)cc2)C2CC2)c1
4.94 | CCC(=O)NCc1ccc(Cl)c(CN(C(=O)[C@H]2CNCC(=O)N2c2ccc(OCCOc3c(Cl)cc(C)cc3Cl)nc2)C2CC2)c1
5.83 | Cc1cc(Cl)c(OCCOc2ccc(N3C(=O)CNC[C@@H]3C(=O)N(Cc3ccc(Cl)cc3)C3CC3)cc2)c(Cl)c1
3.39 | COc1c(CN(C(=O)[C@H]2CNCC(=O)N2c2ccc(OCCOc3c(Cl)cc(C)cc3Cl)nc2)C2CC2)ccnc1C
6.49 | COCCCc1ccc(Cl)c(CN(C(=O)[C@H]2CNCC(=O)N2c2ccc(OCCOc3c(Cl)cc(C)cc3Cl)cc2)C2CC2)c1
5.72 | CNCc1ccc(Cl)c(CN(C(=O)[C@H]2CNCC(=O)N2c2ccc(CCCOc3cccc(Cl)c3)cc2)C2CC2)c1
4.85 | CNC(=O)OCc1ccc(Cl)c(CN(C(=O)[C@H]2CNCC(=O)N2c2ccc(OCCCOCc3ccccc3)cc2)C2CC2)c1
5.33 | CNC(=O)Cc1ccc(Cl)c(CN(C(=O)[C@H]2CNCC(=O)N2c2ccc(CCCOc3cccc(Cl)c3)cc2)C2CC2)c1
5.77 | CCC(=O)NCc1ccc(Cl)c(CN(C(=O)[C@H]2CNCC(=O)N2c2ccc(OCCOc3c(Cl)cc(C)cc3Cl)cc2)C2CC2)c1
5.66 | COCCCc1ccc(Cl)c(CN(C(=O)[C@H]2CNCC(=O)N2c2ccc(OCCOc3c(Cl)cc(C)cc3Cl)nc2)C2CC2)c1
5.91 | Cc1cc(Cl)c(OCCOc2ccc(N3C(=O)CNC[C@@H]3C(=O)N(Cc3cc(CC(=O)NC4CC4)ccc3Cl)C3CC3)cc2)c(Cl)c1
5.31 | CCNCCc1ccc(Cl)c(CN(C(=O)[C@H]2CNCC(=O)N2c2ccc(OCCCOCc3ccccc3OC)cc2)C2CC2)c1
5.74 | CNCCc1ccc(Cl)c(CN(C(=O)[C@H]2CNCC(=O)N2c2ccc(OCCOc3c(Cl)cc(C)cc3Cl)cc2)C2CC2)c1
4.59 | Cc1cc(Cl)c(OCCOc2ccc(N3C(=O)CNC[C@@H]3C(=O)N(C)Cc3ccccc3)cc2)c(Cl)c1
4.94 | CNC(=O)OCCc1ccc(Cl)c(CN(C(=O)[C@H]2CNCC(=O)N2c2ccc(OCCCOCc3ccccc3)cc2)C2CC2)c1

From ChEMBL document CHEMBL1944551, “An integrated computational workflow for efficient and quantitative modeling of renin inhibitors” (Bioorg Med Chem, 2012)
